Experimental findings from US20090123501A1, “INHIBITION OF THE SH2-DOMAIN CONTAINING PROTEIN TYR-PHOSPHATASE, SHP-1, TO ENHANCE VACCINES” (Baylor College of Medicine, priority 2007, published 2009) are described below.

Data set [1] concerns BMDCs. The data set is described as follows: DC survival by annexin V and propidium iodide flow cytometry. It is filed as cell-based, C57BL/6 mice. As to conditions: CD11c purified BMDCs. As for the experimental part:
Primary bone marrow-derived dendritic cells (BMDCs) were prepared from wild type mice in the following manner: Bone marrow cells were flushed from the femurs and tibias of C57BL/6 mice and cultured for 6 days in RPMI media supplemented with 10% FBS, 10 ng/mL IL-4 and 10 ng/mL GMCSF along with antibiotics. On day 6, dendritic cells (DCs) were either purified by magnetic bead assisted cell sorting (MACS; Miltenyi Biotec, Auburn, Calif.) prior to adenoviral transduction, or used as unpurified bulk DCs that were then transduced with adenovirus.
BMDCs were prepared as described above and purified by CD11c (a marker for DC) MACS. Purified DCs were transduced with either Ad5-SHP1-shRNA or Ad5-scrambled-shRNA or left untreated and the virus was washed away following a two hour exposure. Cell survival was determined at 24 hours, 48 hours and 72 hours after infection by annexin V and propidium iodide (PI) staining and analyzed by flow cytometry. Annexin V binds to phosphatidylserine and is an early marker of apoptosis. PI is a DNA intercalating dye that can only enter cells when their membrane is integrity is disrupted and is a marker of cells late in the apoptotic process. Viral infection of DCs causes cells to undergo apoptosis where approximately 50% were dead or dying within the first 24 hours and 85% were dead or dying by 72 hours post-infection (FIG. 8 Ad5-scrambled-shRNA). […]

The subject of data set [2] is BMDCs. Description: In vivo DC migration out of the footpad, luciferase IVIS imaging. Set-up: species or system albino C57BL/6 mice. The note with it: 2×10^6 transduced BMDCs injected into footpad. How it is done: To determine if SHP-1 inhibition enhanced DC migration in vivo, BMDCs were prepared as described above but were transduced with an adenovirus expressing a clickbeetle red-shifted luciferase in addition to either Ad5-SHP-1-shRNA or Ad5-scrambled-shRNA. Transduced cells (2×10^6) were injected into the contralateral footpads of tyrosinase-deficient albino C57BL/6 mice (B6(Cg)-Tyr^c-2J/J, Jackson Laboratory). At the specified intervals mice were injected i.p. with 100 μl of 10 mg/mL luciferin and imaged in vivo using IVIS® (Caliper Life Sciences, Hopkinton, Mass.).

Another data set concerns endogenous SHP-1 protein. The data set is described as follows: Knock-down of endogenous SHP-1 protein in D2SC/1 cells, western blot with densitometry. It counts as cell-based, murine. The note with it: D2SC/1 cells, 40,000 viral particles/cell. As for the experimental part: The high titer adenoviral preparation of SHP-1 specific Ad-shRNA#1149 (referred to from this point on as Ad5-SHP-1-shRNA), produced in the Viral Vector Core Laboratory at Baylor College of Medicine, was tested for its ability to knock-down endogenous SHP-1 protein in D2SC/1 cells, a murine dendritic-like cell line. […] A titration of Ad5-SHP-1 shRNA viral particles was performed and SHP-1 protein expression was determined by western blot (FIG. 3). […] This dose was chosen for subsequent studies using mouse bone marrow derived dendritic cells (BMDCs).
FIG. 3 describes the knock-down of endogenous SHP-1 using high titer Ad5-SHP-1 shRNA. SHP-1 protein expression was measured in D2SC/1 cells following infection with Ad5-SHP-1 at varying doses as shown. Protein levels were analyzed by western blot with a SHP-1 specific antibody. As controls, SHP-1 expression is shown for uninfected cells and those infected with the Ad5-scrambled shRNA. The blot was also probed with a calnexin specific antibody as a loading control. Densitometry analysis of the western is shown below as a percentage of SHP-1 expression level relative to cells infected with Ad5-scrambled shRNA.

The next data set concerns Akt. Description: LPS stimulated Akt signaling in BMDCs, western blot. It counts as cell-based, C57BL/6 mice. The note with it: CD11c positive BMDCs. As for the experimental part: DC survival has been linked with activation of Akt/protein kinase B (PKB) family proteins, major effectors of phosphatidylinositol 3-kinase (PI3K) family members. LPS stimulated Akt signaling BMDCs was examined to determine if SHP-1 mediated survival might be working through this mechanism. MACS sorted for CD11c positive BMDCs were infected with either Ad5-SHP-1-shRNA or Ad5-scrambled-shRNA or left untreated. Cells (10^7) per group were treated with 1 μg/mL LPS for the times indicated or left untreated. Lysates were analyzed by western blot for phosphorylated Akt. […] This observation provides a mechanism for the increased survival seen when SHP-1 signaling was inhibited, in certain embodiments (FIG. 8). LPS stimulation also appears to enhance the total level of SHP-1 protein in DCs as shown by the SHP-1 blot for cells treated with Ad5-scrambled-shRNA.

The subject of a further data set is B16 tumors. The data set is described as follows: DC vaccination of mice bearing ectopic B16 melanoma tumors. It is filed as in vivo, C57BL/6 mice. How it is done:
The B16 melanoma, which is both aggressive and poorly immunogenic, expresses tyrosinase related protein-2 (Trp-2) of which peptide, […] (SEQ ID NO:13), is recognized by CD8^+ T cells in the context of H-2K^b. B16 represents a much more difficult tumor to treat than TRAMP and is considered the “gold standard” for ectopic tumor models in the C57BL/6 background. BMDCs were prepared as described above, pulsed with the Trp-2 and then transduced with either Ad5-SHP-1 shRNA or the control Ad5-scrambled-shRNA virus at 40,000 viral particles/cell. 6-8 week C57BL/6 mice, bearing B16 tumors (5×10^5 cells injected s.c. on the dorsal flank three days prior to vaccination), were given a single i.p. vaccination with 2×10^6 treated DCs or left untreated. Tumors were measured every 2-4 days until termination of the experiment and tumor volume was calculated as described above. […] To determine if this difference was statistically significant, ANOVA and Tukey-Kramer HSD multiple comparisons test were performed.
BMDCs were prepared as described above, pulsed with the Trp-2 and then transduced with either Ad5-SHP-1 shRNA or the control Ad5-scrambled-shRNA virus at 40,000 viral particles/cell. […] Tumors were measured every 2-4 days until termination of the experiment and tumor volume was calculated as described above. […]

The test system of another data set is D2SC/1 cells. The data set is described as follows: Cell death of D2SC/1 cells after adenoviral infection. It is filed as cell-based, murine. The note with it: D2SC/1 cells, 40,000 viral particles/cell.

For “CACCGGAGCATGACACAGCAGAATACGAATATTCTGCTGTGTCATGCTCC (chemistry not given here) [Ad5-SHP-1-shRNA]”, the figures for the “cells dead or dying” value with BMDCs [1] (by 72 hours post-infection) and with BMDCs [1] (within the first 24 hours post-infection) were 55% and 35%, respectively. Moreover, in the data set on BMDCs [2], the “DCs in the footpad at 24 hours post-injection” value was “undetectable in the footpad by 24 hours post injection”. For the same sequence, in the data set with BMDCs [2] (post-injection), the “time by which DCs are seen to migrate out of the footpad” value was at most 2 h. Also, in the data set with endogenous SHP-1 protein, the “decrease in endogenous SHP-1 protein” value was determined as 95%. In addition, the “steady state expression of total Akt protein” value in the data set with Akt is “enhanced the steady state expression of total Akt protein”. Also, in the data set with Akt (1 μg/mL LPS), the “LPS mediated Akt phosphorylation” value is listed as “enhanced LPS mediated Akt phosphorylation”. For the same sequence, the “B16 mean tumor volume (growth curves)” value with B16 tumors (Trp-2 pulsed DCs, 40,000 viral particles/cell, single i.p. 2×10^6 DCs, beginning at day 18) is reported as “markedly smaller mean tumor volumes”. Moreover, the “B16 mean tumor volume (ANOVA)” value in the data set with B16 tumors (Trp-2 pulsed DCs, compared with either control group) is listed as “significantly lower mean tumor volume”. In addition, in the data set on D2SC/1 cells, the cell death result is given as “minimal cell death”.
